Patent US20210078988A1, “MODULATORS OF INDOLEAMINE 2,3-DIOXYGENASE” (GLAXOSMITHKLINE INTELLECTUAL PROPERTY DEVELOPMENT LIMITED, priority 2017, published 2021)

Biological target: T1, indoleamine 2, 3-dioxygenase (IDO1) (Homo sapiens, UniProt P14902)
T1 construct: human peripheral blood mononuclear cells (PBMC) (PB003F; host or cells: human PBMC stimulated with IFN-gamma and LPS
Experiment: PBMC IDO1 assay (kynurenine detection via mass spectrometry)
Assay type: cell-based
Conditions: human PBMC stimulated with IFN-γ and LPS, 2 days, kynurenine by mass spectrometry; read-out: IDO1 PBMC pIC50 (converted)
Summary of the method: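 Human PBMCs (50,000/well) stimulated with IFN-γ 100 ng/ml and LPS 50 ng/ml were exposed to 11-point 3-fold compound dilutions for 2 days at 37 °C. Supernatant kynurenine was quantified by RapidFire MS relative to an internal standard; parallel CellTiter-Glo ATP luminescence measured cytotoxicity, with four-parameter curve fitting.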

T1 sequence (P14902 whole entry): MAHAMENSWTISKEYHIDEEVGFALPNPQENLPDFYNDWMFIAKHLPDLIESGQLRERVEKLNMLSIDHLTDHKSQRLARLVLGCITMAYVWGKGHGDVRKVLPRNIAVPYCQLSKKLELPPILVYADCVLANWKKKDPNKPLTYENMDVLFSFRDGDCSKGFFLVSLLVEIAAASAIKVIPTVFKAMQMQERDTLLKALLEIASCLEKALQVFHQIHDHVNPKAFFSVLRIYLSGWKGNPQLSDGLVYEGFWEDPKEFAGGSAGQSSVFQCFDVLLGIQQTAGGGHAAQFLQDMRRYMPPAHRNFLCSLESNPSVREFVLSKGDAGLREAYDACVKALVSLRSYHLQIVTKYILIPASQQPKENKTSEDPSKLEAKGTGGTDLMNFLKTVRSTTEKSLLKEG

Compound	IC50 [µM]
C=Cc1ccc(C(=O)NC(CC2CCN(C(=O)OC(C)(C)C)CC2)c2ccccc2)cc1 (stereo not shown) [Example 119, tert-butyl 4-(2-phenyl-2-(4-vinylbenzamido)ethyl)piperidine-1-carboxylate]	0.0316
CCOC(=O)N1CCC(CC(NC(=O)c2ccc(F)cc2)c2ccccc2)CC1 (stereo not shown) [Example 120, ethyl 4-(2-(4-fluorobenzamido)-2-phenylethyl)piperidine-1-carboxylate]	0.0398
O=C(NC(CC1CCN(C(=O)Oc2ccccc2)CC1)c1ccccc1)c1ccc(F)cc1 (stereo not shown) [Example 121, phenyl 4-(2-(4-fluorobenzamido)-2-phenylethyl)piperidine-1-carboxylate]	0.0398
CCN(CC)c1ccc(C(CC2CCN(C(=O)OC(C)(C)C)CC2)NC(=O)c2ccc(F)cc2)cn1 (stereo not shown) [Example 122, tert-butyl 4-(2-(6-(diethylamino)pyridin-3-yl)-2-(4-fluorobenzamido)ethyl)piperidine-1-carboxylate]	0.0398
COc1ccc(C(=O)N[C@@H](CC2CCN(C(=O)OC(C)(C)C)CC2)c2ccccc2)cn1 [Example 123, (S)-tert-butyl 4-(2-(6-methoxynicotinamido)-2-phenylethyl)piperidine-1-carboxylate]	0.0398
CC(C)c1ccc(C(=O)NC(CC2CCN(C(=O)OC(C)(C)C)CC2)c2ccccc2)s1 (stereo not shown) [Example 124, tert-butyl 4-(2-(5-isopropylthiophene-2-carboxamido)-2-phenylethyl)piperidine-1-carboxylate]	0.0398
CC(C)COC(=O)N1CCC(CC(NC(=O)c2ccc(Cl)cc2)c2ccccc2)CC1 (stereo not shown) [Example 125, isobutyl 4-(2-(4-chlorobenzamido)-2-phenylethyl)piperidine-1-carboxylate]	0.0398
CC(C)(C)OC(=O)N1CCC(CC(NC(=O)c2ccc(Br)cc2)C2CCCC2)CC1 (stereo not shown) [Example 126, tert-butyl 4-(2-(4-bromobenzamido)-2-cyclopentylethyl)piperidine-1-carboxylate]	0.0398
CCNc1nnc(C(CC2CCN(C(=O)OC(C)(C)C)CC2)NC(=O)c2ccc(Cl)s2)o1 (stereo not shown) [Example 127, tert-butyl 4-(2-(5-chlorothiophene-2-carboxamido)-2-(5-(ethylamino)-1,3,4-oxadiazol-2-yl)ethyl)piperidine-1-carboxylate]	0.0398
CC(C)(C)OC(=O)N1CCC(CC(NC(=O)c2csc(Cl)c2)c2ccccc2)CC1 (stereo not shown) [Example 128, tert-butyl 4-(2-(5-chlorothiophene-3-carboxamido)-2-phenylethyl)piperidine-1-carboxylate]	0.0398
CC(C)(C)OC(=O)N1CCC(C[C@@H](CCN2CCOCC2)NC(=O)c2ccc(Cl)s2)CC1 [Example 129, (S)-tert-butyl 4-(2-(5-chlorothiophene-2-carboxamido)-4-morpholinobutyl)piperidine-1-carboxylate]	0.0398
Cc1ccc(C(=O)NC(CC2CCN(C(=O)OC(C)(C)C)CC2)c2ccccc2)cc1 (stereo not shown) [Example 130, tert-butyl 4-(2-(4-methylbenzamido)-2-phenylethyl)piperidine-1-carboxylate]	0.0501
CC(C)(C)OC(=O)N1CCC(CC(NC(=O)c2cccs2)c2ccccc2)CC1 (stereo not shown) [Example 131, tert-butyl 4-(2-phenyl-2-(thiophene-2-carboxamido)ethyl)piperidine-1-carboxylate]	0.0501
CC(C)(C)OC(=O)N1CCC(CC(NC(=O)c2ccc(F)cc2)c2ccc(OC3CCCCC3)nc2)CC1 (stereo not shown) [Example 132, tert-butyl 4-(2-(6-(cyclohexyloxy)pyridin-3-yl)-2-(4-fluorobenzamido)ethyl)piperidine-1-carboxylate]	0.0501
CC(C)(C)OC(=O)N1CCC(CC(NC(=O)c2ccc(C3CC3)c(F)c2)c2ccccc2)CC1 (stereo not shown) [Example 133, tert-butyl 4-(2-(4-cyclopropyl-3-fluorobenzamido)-2-phenylethyl)piperidine-1-carboxylate]	0.0501
COC(=O)N1CCC(CC(NC(=O)c2ccc(Cl)cc2)c2ccccc2)CC1 (stereo not shown) [Example 134, methyl 4-(2-(4-chlorobenzamido)-2-phenylethyl)piperidine-1-carboxylate]	0.0501
CC(C)(C)OC(=O)N1CCC(CC(NC(=O)c2ccc(Cl)cc2)C2CCCCC2)CC1 (stereo not shown) [Example 135, tert-butyl 4-(2-(4-chlorobenzamido)-2-cyclohexylethyl)piperidine-1-carboxylate]	0.0501
Cc1ccc(C(=O)NC(CC2CCN(C(=O)C(F)(F)c3ccccn3)CC2)c2ccccc2)s1 (stereo not shown) [Example 136, N-(2-(1-(2,2-difluoro-2-(pyridin-2-yl)acetyl)piperidin-4-yl)-1-phenylethyl)-5-methylthiophene-2-carboxamide]	0.0501

Other lines, results leading:

IC50 [µM]	Compound
0.0501	Cc1ccc(C(=O)NC(CC2CCN(c3ccccc3)CC2)c2ccccc2)s1 (stereo not shown) [Example 137, 5-methyl-N-(1-phenyl-2-(1-phenylpiperidin-4-yl)ethyl)thiophene-2-carboxamide]
0.0631	CC(C)(C)OC(=O)N1CCC(CC(NC(=O)c2ccccc2)c2ccccc2)CC1 (stereo not shown) [Example 138, tert-butyl 4-(2-benzamido-2-phenylethyl)piperidine-1-carboxylate]
0.0631	Cc1ccc(C(=O)NC(CC2CCN(C(=O)OC(C)(C)C)CC2)c2ccccc2)cc1F (stereo not shown) [Example 139, tert-butyl 4-(2-(3-fluoro-4-methylbenzamido)-2-phenylethyl)piperidine-1-carboxylate]
0.0631	CN(Cc1ccccc1)c1nnc(C(CC2CCN(C(=O)OC(C)(C)C)CC2)NC(=O)c2ccc(Cl)s2)o1 (stereo not shown) [Example 140, tert-butyl 4-(2-(5-(benzyl(methyl)amino)-1,3,4-oxadiazol-2-yl)-2-(5-chlorothiophene-2-carboxamido)ethyl)piperidine-1-carboxylate]
0.0631	CC(C)(C)OC(=O)N1CCC(CC(NC(=O)c2ccc(C#N)cc2)c2ccccc2)CC1 (stereo not shown) [Example 141, tert-butyl 4-(2-(4-cyanobenzamido)-2-phenylethyl)piperidine-1-carboxylate]
0.0631	CC(C)(C)OC(=O)N1CCC(CC(CNCc2ccccc2)NC(=O)c2ccc(F)cc2)CC1 (stereo not shown) [Example 142, tert-butyl 4-(3-(benzylamino)-2-(4-fluorobenzamido)propyl)piperidine-1-carboxylate]
0.0794	COc1ccc(C(=O)NC(CC2CCN(C(=O)OC(C)(C)C)CC2)c2ccccc2)cc1 (stereo not shown) [Example 143, tert-butyl 4-(2-(4-methoxybenzamido)-2-phenylethyl)piperidine-1-carboxylate]
0.0794	CC(C)Oc1ccc(C(CC2CCN(C(=O)OC(C)(C)C)CC2)NC(=O)c2ccc(F)cc2)cn1 (stereo not shown) [Example 144, tert-butyl 4-(2-(4-fluorobenzamido)-2-(6-isopropoxypyridin-3-yl)ethyl)piperidine-1-carboxylate]
0.0794	COC(=O)N1CCC(CC(NC(=O)c2ccc(F)cc2)c2ccc(OC)nc2)CC1 (stereo not shown) [Example 145, methyl 4-(2-(4-fluorobenzamido)-2-(6-methoxypyridin-3-yl)ethyl)piperidine-1-carboxylate]
0.0794	CC(C)(C)OC(=O)N1CCC(CC(NC(=O)c2cccc(F)c2)c2ccccc2)CC1 (stereo not shown) [Example 146, tert-butyl 4-(2-(3-fluorobenzamido)-2-phenylethyl)piperidine-1-carboxylate]
